These are literature values, as cited in US20040208906A1, “Pharmaceutical composition for topical administration” (Daiichi Suntory Pharma Co., Ltd., priority 1999, published 2004).

The test system of data set [1] is Gram-positive bacteria (MSSA, Streptococcus pyogenes, Streptococcus pneumoniae, PRSP, oral streptococci, enterococci). As to conditions: Gram-positive bacteria incl. MSSA.
Data set [2] relates to pathogens of periodontitis, including Porphyromonas gingivalis.

In the case of `C[C@@H](O)[C@H]1C(=O)N2C(C(=O)[O-])=C([C@H]3CCCO3)S[C@H]12.[Na+]` [Compound 1, sodium (+)-(5R,6S)-6-[(R)-1-hydroxyethyl]-7-oxo-3-[(R)-2-tetrahydrofuryl]-4-thia-1-azabicyclo[3.2.0]hept-2-ene-2-carboxylate], the antibacterial activity result in data set [1] and in data set [2] was “potent antibacterial activity” throughout.
